Measurements from PubChem BioAssay (NCI).
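Five compound concentrations were applied to cells in 96-well plates for 48 hours; endpoints were derived by simple linear interpolation of the resulting dose-response curve. TGI: concentration producing complete growth inhibition.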

Assays:
Experiment in all cases: NCI tumour cell line growth inhibition, 48 h
RXF 393 renal = test system: RXF 393 renal
KM20L2 colon = test system: KM20L2 colon
SK-MEL-5 melanoma = test system: SK-MEL-5 melanoma
SNB-78 CNS = test system: SNB-78 CNS
A498 renal = test system: A498 renal
OVCAR-3 ovarian = test system: OVCAR-3 ovarian
SW-620 colon = test system: SW-620 colon
SN12C renal = test system: SN12C renal
M14 melanoma = test system: M14 melanoma
RXF-631 renal = test system: RXF-631 renal
DLD-1 colon = test system: DLD-1 colon
HL-60(TB) leukemia = test system: HL-60(TB) leukemia
IGROV1 ovarian = test system: IGROV1 ovarian
MOLT-4 leukemia = test system: MOLT-4 leukemia
HOP-92 NSCLC = test system: HOP-92 NSCLC
HCC-2998 colon = test system: HCC-2998 colon
A549 NSCLC = test system: A549 NSCLC
HT29 colon = test system: HT29 colon
NCI-H522 lung = test system: NCI-H522 lung
786-0 renal = test system: 786-0 renal
SF-295 CNS = test system: SF-295 CNS
SR leukemia = test system: SR leukemia
HOP-18 NSCLC = test system: HOP-18 NSCLC
MALME-3M melanoma = test system: MALME-3M melanoma
DMS 114 small cell lung = test system: DMS 114 small cell lung
NCI-H460 lung = test system: NCI-H460 lung
U251 CNS = test system: U251 CNS
SK-OV-3 ovarian = test system: SK-OV-3 ovarian
SF-268 CNS = test system: SF-268 CNS
EKVX NSCLC = test system: EKVX NSCLC
LXFL 529 NSCLC = test system: LXFL 529 NSCLC
ACHN renal = test system: ACHN renal
M19-MEL melanoma = test system: M19-MEL melanoma
UO-31 renal = test system: UO-31 renal
UACC-257 melanoma = test system: UACC-257 melanoma
XF 498 CNS = test system: XF 498 CNS
KM12 colon = test system: KM12 colon
UACC-62 melanoma = test system: UACC-62 melanoma
HOP-62 NSCLC = test system: HOP-62 NSCLC
LOX IMVI melanoma = test system: LOX IMVI melanoma
SNB-19 CNS = test system: SNB-19 CNS
TK-10 renal = test system: TK-10 renal
HCT-116 colon = test system: HCT-116 colon
NCI-H23 lung = test system: NCI-H23 lung
SF-539 CNS = test system: SF-539 CNS
CCRF-CEM leukemia = test system: CCRF-CEM leukemia
SK-MEL-2 melanoma = test system: SK-MEL-2 melanoma
K-562 leukemia = test system: K-562 leukemia
COLO 205 colon = test system: COLO 205 colon
SK-MEL-28 melanoma = test system: SK-MEL-28 melanoma
OVCAR-5 ovarian = test system: OVCAR-5 ovarian
HCT-15 colon = test system: HCT-15 colon
RPMI-8226 leukemia = test system: RPMI-8226 leukemia
OVCAR-8 ovarian = test system: OVCAR-8 ovarian
OVCAR-4 ovarian = test system: OVCAR-4 ovarian
NCI-H226 lung = test system: NCI-H226 lung
SNB-75 CNS = test system: SNB-75 CNS
CAKI-1 renal = test system: CAKI-1 renal
MDA-MB-435 = test system: MDA-MB-435
T-47D breast = test system: T-47D breast
PC-3 prostate = test system: PC-3 prostate
MCF7 breast = test system: MCF7 breast
HS 578T breast = test system: HS 578T breast
MDA-MB-231 breast = test system: MDA-MB-231 breast
NCI/ADR-RES ovarian = test system: NCI/ADR-RES ovarian
BT-549 breast = test system: BT-549 breast
DMS 273 small cell lung = test system: DMS 273 small cell lung
MDA-N = test system: MDA-N
DU-145 prostate = test system: DU-145 prostate

COC(=O)CCC(NC(=S)N/N=C/c1ccccn1)C(=O)OC (stereo not given)
TGI (RXF 393 renal): > 100 µM | TGI (KM20L2 colon): > 100 µM | TGI (SK-MEL-5 melanoma): > 100 µM | TGI (SNB-78 CNS): > 100 µM | TGI (A498 renal): > 100 µM | TGI (OVCAR-3 ovarian): > 100 µM | TGI (SW-620 colon): > 100 µM | TGI (SN12C renal): > 100 µM | TGI (M14 melanoma): > 100 µM | TGI (RXF-631 renal): > 100 µM | TGI (DLD-1 colon): > 100 µM | TGI (HL-60(TB) leukemia): > 100 µM | TGI (IGROV1 ovarian): > 100 µM | TGI (MOLT-4 leukemia): > 100 µM | TGI (HOP-92 NSCLC): > 100 µM | TGI (HCC-2998 colon): > 100 µM | TGI (A549 NSCLC): > 100 µM | TGI (HT29 colon): > 100 µM | TGI (NCI-H522 lung): > 100 µM | TGI (786-0 renal): > 100 µM | TGI (SF-295 CNS): > 100 µM | TGI (SR leukemia): > 100 µM | TGI (HOP-18 NSCLC): > 100 µM | TGI (MALME-3M melanoma): > 100 µM | TGI (DMS 114 small cell lung): > 100 µM | TGI (NCI-H460 lung): > 100 µM | TGI (U251 CNS): > 100 µM | TGI (SK-OV-3 ovarian): > 100 µM | TGI (SF-268 CNS): > 100 µM | TGI (EKVX NSCLC): > 100 µM | TGI (LXFL 529 NSCLC): > 100 µM | TGI (ACHN renal): > 100 µM | TGI (M19-MEL melanoma): > 100 µM | TGI (UO-31 renal): > 100 µM | TGI (UACC-257 melanoma): > 100 µM | TGI (XF 498 CNS): > 100 µM | TGI (KM12 colon): > 100 µM | TGI (UACC-62 melanoma): > 100 µM | TGI (HOP-62 NSCLC): > 100 µM | TGI (LOX IMVI melanoma): > 100 µM | TGI (SNB-19 CNS): > 100 µM | TGI (TK-10 renal): > 100 µM | TGI (HCT-116 colon): > 100 µM | TGI (NCI-H23 lung): > 100 µM | TGI (SF-539 CNS): > 100 µM | TGI (CCRF-CEM leukemia): > 100 µM | TGI (SK-MEL-2 melanoma): > 100 µM | TGI (K-562 leukemia): > 100 µM | TGI (COLO 205 colon): > 100 µM | TGI (SK-MEL-28 melanoma): > 100 µM | TGI (OVCAR-5 ovarian): > 100 µM | TGI (HCT-15 colon): > 100 µM | TGI (RPMI-8226 leukemia): > 100 µM | TGI (OVCAR-8 ovarian): > 100 µM | TGI (OVCAR-4 ovarian): > 100 µM | TGI (NCI-H226 lung): > 100 µM | TGI (SNB-75 CNS): > 100 µM

CC12OOC(c3ccccc31)c1c2ccc2ccccc12 (stereo not given)
TGI (RXF 393 renal): 7.53 µM | TGI (KM20L2 colon): 11.3 µM | TGI (CAKI-1 renal): 4.64 µM | TGI (SK-MEL-5 melanoma): 21.6 µM | TGI (SNB-78 CNS): 21.8 µM | TGI (MDA-MB-435): 18.2 µM | TGI (A498 renal): 32.1 µM | TGI (OVCAR-3 ovarian): 5.81 µM | TGI (T-47D breast): 3.84 µM | TGI (SW-620 colon): 3.94 µM | TGI (SN12C renal): 29.6 µM | TGI (M14 melanoma): 22.6 µM | TGI (RXF-631 renal): 20.1 µM | TGI (DLD-1 colon): 3.06 µM | TGI (HL-60(TB) leukemia): 2.72 µM | TGI (IGROV1 ovarian): 3.67 µM | TGI (MOLT-4 leukemia): 3.42 µM | TGI (HOP-92 NSCLC): 9.94 µM | TGI (HCC-2998 colon): 16.2 µM | TGI (A549 NSCLC): 8.43 µM | TGI (HT29 colon): 6.02 µM | TGI (NCI-H522 lung): 1.99 µM | TGI (786-0 renal): 22.3 µM | TGI (PC-3 prostate): 18.8 µM | TGI (SF-295 CNS): 14.3 µM | TGI (MCF7 breast): 32.4 µM | TGI (SR leukemia): 3.24 µM | TGI (HS 578T breast): 78.7 µM | TGI (HOP-18 NSCLC): 5.9 µM | TGI (MALME-3M melanoma): 5.79 µM | TGI (DMS 114 small cell lung): 2.34 µM | TGI (NCI-H460 lung): 5.48 µM | TGI (U251 CNS): 28.1 µM | TGI (SK-OV-3 ovarian): 34.3 µM | TGI (SF-268 CNS): 28 µM | TGI (EKVX NSCLC): 18.7 µM | TGI (LXFL 529 NSCLC): 4.81 µM | TGI (ACHN renal): 3.51 µM | TGI (M19-MEL melanoma): 9.89 µM | TGI (UO-31 renal): 23.2 µM | TGI (MDA-MB-231 breast): 26.6 µM | TGI (NCI/ADR-RES ovarian): 24.1 µM | TGI (UACC-257 melanoma): 26.8 µM | TGI (BT-549 breast): 22.3 µM | TGI (KM12 colon): 7.43 µM | TGI (UACC-62 melanoma): 21.2 µM | TGI (HOP-62 NSCLC): 30.2 µM | TGI (DMS 273 small cell lung): 21 µM | TGI (LOX IMVI melanoma): 6.41 µM | TGI (SNB-19 CNS): 30.5 µM | TGI (TK-10 renal): 22.3 µM | TGI (HCT-116 colon): 3.21 µM | TGI (MDA-N): 19.5 µM | TGI (NCI-H23 lung): 26.6 µM | TGI (SF-539 CNS): 22.3 µM | TGI (CCRF-CEM leukemia): 2.8 µM | TGI (SK-MEL-2 melanoma): 24.9 µM | TGI (K-562 leukemia): 3.58 µM | TGI (COLO 205 colon): 3.24 µM | TGI (SK-MEL-28 melanoma): 27 µM | TGI (DU-145 prostate): 32.4 µM | TGI (OVCAR-5 ovarian): 33.6 µM | TGI (HCT-15 colon): 5.09 µM | TGI (RPMI-8226 leukemia): 6.24 µM | TGI (OVCAR-8 ovarian): 20.9 µM | TGI (OVCAR-4 ovarian): 2.43 µM | TGI (NCI-H226 lung): 39.3 µM | TGI (SNB-75 CNS): 22.5 µM
